From patent US20230398130A1, “METHODS AND COMPOSITIONS FOR DIFFERENTIATING STEM CELLS” (Massachusetts Institute of Technology, priority 2020, published 2023)

Legend:
ISC-enriched organoids [1] = assay: Primary screen, 384-well 2.5-D organoid differentiation (ENR+CD, 6 days): basal lysozyme secretion (LYZ.NS); assay type: cell-based, murine; conditions: for Dose.FC.LYZ.NS: ENR+CD, 6 days, FC vs plate median; for Z.LYZ.NS: standard z score of FC
Description: (§1) High-throughput screening.

ISC-enriched organoids [2] = assay: Primary screen, 384-well 2.5-D organoid differentiation (ENR+CD, 6 days): carbachol-induced lysozyme secretion (LYZ.S); assay type: cell-based, murine; conditions: ENR+CD, 6 days, FC vs plate median
Description: as §1

ISC-enriched organoids [3] = assay: Primary screen, 384-well 2.5-D organoid differentiation (ENR+CD, 6 days, Target Selective Inhibitor Library, vs whole-plate median): ATP (CellTiter-Glo 3D, CTG); conditions: for Dose.FC.CTG: ENR+CD, 6 days, FC vs plate median; for Z.CTG: standard z score of FC

Row | Structure (SMILES) | Dose.FC.LYZ.NS (ISC-enriched organoids [1]; Dose 0.08 uM) [log 2 fold change] | Z.LYZ.NS (ISC-enriched organoids [1]; Dose 0.08 uM) | Dose.FC.LYZ.NS (ISC-enriched organoids [1]; Dose 0.40 uM) [log 2 fold change] | Z.LYZ.NS (ISC-enriched organoids [1]; Dose 0.40 uM) | Dose.FC.LYZ.NS (ISC-enriched organoids [1]; Dose 2.00 uM) [log 2 fold change] | Z.LYZ.NS (ISC-enriched organoids [1]; Dose 2.00 uM) | Dose.FC.LYZ.NS (ISC-enriched organoids [1]; Dose 10.00 uM) [log 2 fold change] | Z.LYZ.NS (ISC-enriched organoids [1]; Dose 10.00 uM) | Dose.FC.LYZ.S (ISC-enriched organoids [2]; Dose 0.08 uM) [log 2 fold change] | Dose.FC.LYZ.S (ISC-enriched organoids [2]; Dose 0.40 uM) [log 2 fold change] | Dose.FC.LYZ.S (ISC-enriched organoids [2]; Dose 2.00 uM) [log 2 fold change] | Dose.FC.LYZ.S (ISC-enriched organoids [2]; Dose 10.00 uM) [log 2 fold change] | Dose.FC.CTG (ISC-enriched organoids [3]; Dose 0.08 uM) [log 2 fold change] | Z.CTG (ISC-enriched organoids [3]; Dose 0.08 uM) | Dose.FC.CTG (ISC-enriched organoids [3]; Dose 0.40 uM) [log 2 fold change] | Z.CTG (ISC-enriched organoids [3]; Dose 0.40 uM) | Dose.FC.CTG (ISC-enriched organoids [3]; Dose 2.00 uM) [log 2 fold change] | Z.CTG (ISC-enriched organoids [3]; Dose 2.00 uM) | Dose.FC.CTG (ISC-enriched organoids [3]; Dose 10.00 uM) [log 2 fold change] | Z.CTG (ISC-enriched organoids [3]; Dose 10.00 uM)
1 | O=C(NC(NC(=S)Nc1ccc(F)c([N+](=O)[O-])c1)C(Cl)(Cl)Cl)C(c1ccccc1)c1ccccc1 (stereo not shown) [CGK733] | 0.099 | 0.863 | −0.026 | −0.222 | −0.099 | −0.865 | −0.122 | −1.063 | 0.008 | −0.018 | −0.125 | −0.230 | −0.362 | −0.864 | −0.093 | −0.221 | −0.244 | −0.582 | −0.478 | −1.143
2 | Nc1ncnc2n[nH]c(Nc3ccc(F)cc3)c12 [CGP57380] | 0.218 | 1.900 | −0.041 | −0.354 | −0.055 | −0.477 | −0.037 | −0.321 | 0.096 | 0.054 | −0.095 | −0.088 | 0.108 | 0.258 | −0.293 | −0.700 | −0.460 | −1.098 | 0.055 | 0.132
3 | O=c1[nH]c2ccc(Cl)cc2c(N[C@@H]2CN3CCC2CC3)c1-c1nc2ccccc2[nH]1 [CHIR-124] | −0.155 | −1.352 | −0.240 | −2.090 | −0.220 | −1.916 | −0.140 | −1.223 | −0.267 | −0.339 | −0.352 | −0.332 | −0.256 | −0.612 | −0.853 | −2.038 | −0.861 | −2.057 | −1.555 | −3.714
4 | Cc1[nH]c2ccccc2c1CCNC(=O)c1cccs1 [CK-636] | 0.039 | 0.336 | −0.049 | −0.427 | −0.066 | −0.573 | −0.108 | −0.944 | 0.080 | −0.013 | 0.072 | −0.103 | 0.202 | 0.483 | −0.004 | −0.010 | −0.201 | −0.479 | −0.169 | −0.404
5 | C=CC(=O)Nc1cccc(Nc2nc(Nc3ccc(Oc4ccnc(C(=O)NC)c4)cc3)ncc2F)c1 [CNX-774] | 0.075 | 0.655 | −0.008 | −0.067 | 0.158 | 1.378 | −0.043 | −0.376 | 0.014 | −0.027 | 0.082 | −0.089 | 0.259 | 0.619 | 0.177 | 0.422 | −0.109 | −0.260 | −0.081 | −0.194
6 | CN(C)C(=O)[C@H](O)[C@H](Cc1ccccc1)NC(=O)c1cc2cc(Cl)ccc2[nH]1 [CP-91149] | 0.177 | 1.538 | −0.033 | −0.289 | 0.028 | 0.245 | −0.057 | −0.498 | 0.186 | 0.055 | −0.121 | −0.097 | 0.031 | 0.073 | −0.023 | −0.056 | −0.098 | −0.234 | −0.100 | −0.239
7 | O=C(O)c1cc2cccc([N+](=O)[O-])c2[nH]1 [CRT0044876] | 0.016 | 0.135 | 0.034 | 0.298 | 0.047 | 0.408 | 0.032 | 0.278 | −0.002 | 0.055 | 0.014 | −0.061 | −0.171 | −0.410 | −0.040 | −0.096 | −0.081 | −0.192 | −0.099 | −0.237
8 | Cc1ccc([C@@H]2O[C@H](CO)[C@@H](O)[C@H](O)[C@H]2O)cc1Cc1ccc(-c2ccc(F)cc2)s1 [Canagliflozin] | −0.027 | −0.233 | −0.046 | −0.398 | 0.025 | 0.214 | −0.064 | −0.556 | 0.014 | −0.032 | 0.028 | −0.033 | −0.240 | −0.572 | −0.098 | −0.235 | 0.042 | 0.101 | −0.079 | −0.188
